Data as given in patent US20260250320A1, “LIPIDATED PEPTIDE INHIBITORS OF INTERLEUKIN-23 RECEPTOR” (Janssen Pharmaceutica NV, priority 2023, published 2026).
pIC50: −log10 of the molar value. *1 amine or outer side, *2 acyl side, *3 side chain or, on linkers, in order; H or OH if unused. Where a SMILES comes first, the peptide text is derived from it. Bridges are numbered along the chain shown (N, C = ends). Side-chain parts run from the residue outwards. [ ]: non-standard residue; d: D form. The star is where a group is joined. ξ: configuration not given here. Me3N+CH2CH2(OCH2CH2)4CO = C[N+](C)(C)CCOCCOCCOCCOCCC(=O)*; PEG12 = NCCOCCOCCOCCOCCOCCOCCOCCOCCOCCOCCOCCOCCC(=O)O; Trp(7-Me,2,3-dihydro) = Cc1cccc2c1NCC2C[C@H](N)C(=O)O; Trp(7-Me) = Cc1cccc2c(C[C@H](N)C(=O)O)c[nH]c12; C20 diacid = O=C(O)CCCCCCCCCCCCCCCCCCC(=O)*; C18 diacid = O=C(O)CCCCCCCCCCCCCCCCC(=O)*; X40 = C=C(/C=N\C)C[C@H](N[*:1])C(=O)[*:2]; C16 diacid = O=C(O)CCCCCCCCCCCCCCC(=O)*; γGlu = O=C(O)[C@H](CCC(=O)[*:2])N[*:1]; 2Nal = N[C@@H](Cc1ccc2ccccc2c1)C(=O)O; AEF = NCCOc1ccc(C[C@H](N)C(=O)O)cc1; X2 = C[N+](C)(C)C[C@@H](CC(=O)O)N*; ξAEF = NCCOc1ccc(CC(N)C(=O)O)cc1; 3Pal = N[C@@H](Cc1cccnc1)C(=O)O; Lys(Me) = CNCCCC[C@H](N)C(=O)O; NMeK = CN[C@@H](CCCCN)C(=O)O; Pen = CC(C)(S)[C@H](N)C(=O)O; Suc = O=C(CCC(=O)[*:2])[*:1]; Thp = NC1(C(=O)O)CCOCC1; Abu = CC[C@H](N)C(=O)O; X1 = C[N+](C)(C)CCCCC*; AEEA = NCCOCCOCC(=O)O; Sar = CNCC(=O)O

Assays:
[1] = system: IL-23-stimulated phosphorylated STAT3 in peripheral blood mononuclear cells (PBMCs); test: PBMC pSTAT3 Assay; format: cell-based; details: PBMCs from healthy donors; 30 min preincubation with peptide; IL-23 5 ng/mL for 30 min; phospho-STAT3 by MSD
Method in brief: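 Phospho-STAT3 quantified by Meso Scale assay in lysates of PBMCs exposed to IL-23 (5 ng/mL, 30 min, 37 °C) after 30 min peptide pretreatment. Cells were cryopreserved donor PBMCs activated 4 days with anti-CD3 plus IL-1β (100 ng/mL) and starved ~4 h; IC50 reported.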

IL-23R = target: T1, IL-23R (Homo sapiens, UniProt Q5VWK5); test: IL23R Reporter Assay; format: cell-based; details: HEK293 cells containing IL-23R, IL-12Rβ1 and STAT-inducible firefly luciferase reporter; 10 ng/mL IL-23 (EC90); 5 h
T1 construct: HEK293 cells containing IL-23R, IL-12Rβ1 and a firefly luciferase reporter gene driven by a STAT-inducible promoter (Promega); host or cells: HEK293
T1 sequence (Q5VWK5 24-629): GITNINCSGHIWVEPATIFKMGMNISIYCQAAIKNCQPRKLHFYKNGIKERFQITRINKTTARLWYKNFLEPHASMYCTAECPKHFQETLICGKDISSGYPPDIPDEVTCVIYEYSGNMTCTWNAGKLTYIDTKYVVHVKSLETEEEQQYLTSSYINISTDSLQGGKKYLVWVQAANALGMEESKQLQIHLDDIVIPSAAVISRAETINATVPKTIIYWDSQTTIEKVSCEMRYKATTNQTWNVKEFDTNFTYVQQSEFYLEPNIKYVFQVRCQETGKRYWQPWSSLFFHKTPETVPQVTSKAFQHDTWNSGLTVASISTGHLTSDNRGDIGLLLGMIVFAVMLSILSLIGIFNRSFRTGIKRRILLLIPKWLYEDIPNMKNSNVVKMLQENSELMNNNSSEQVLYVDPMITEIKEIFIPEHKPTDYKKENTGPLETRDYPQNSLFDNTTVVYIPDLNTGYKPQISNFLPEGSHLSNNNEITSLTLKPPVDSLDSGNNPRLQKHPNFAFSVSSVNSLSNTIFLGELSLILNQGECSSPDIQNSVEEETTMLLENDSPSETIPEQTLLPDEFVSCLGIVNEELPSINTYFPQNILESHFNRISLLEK
Method in brief: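 IC50 values were fitted with a 4-parameter Hill equation to luciferase signal, scaled between IL-23-only wells (0% inhibition) and 30 μM reference inhibitor (100%). The readout was a STAT-inducible reporter in IL-23R/IL-12Rβ1 HEK293 cells, stimulated with added 10 ng/mL IL-23 (EC90) for 5 h at 37° C and developed with BioGlo.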

Row | SMILES | pIC50 [1] | pIC50 (IL-23R)
1 | CC(=O)NCCCC[C@@H]1NC(=O)[C@H](Cc2c[nH]c3c(C)cccc23)NC(=O)[C@H]([C@@H](C)O)NC(=O)[C@H](CC(N)=O)NC(=O)[C@@H](NC(=O)[C@@H](CCCNC(=N)N)NC(C)=O)C(C)(C)SSC(C)(C)[C@@H](C(=O)N[C@@H](Cc2ccc(OCCNC(=O)CCC(=O)N[C@H](CC(=O)O)C[N+](C)(C)C)cc2)C(=O)N[C@@H](Cc2ccc3ccccc3c2)C(=O)NC2(C(=O)N[C@@H](CCCCNC(=O)COCCOCCNC(=O)COCCOCCNC(=O)CC[C@H](NC(=O)CCCCCCCCCCCCCCCCC(=O)O)C(=O)O)C(=O)N[C@@H](CC(N)=O)C(=O)N[C@@H](Cc3cccnc3)C(=O)N(C)CC(N)=O)CCOCC2)NC1=O [compound 22, MeCO-r-Pen(3)-N-T-7MeW-K(Ac)-Pen(3)-AEF(d)-2Nal-THP-K(PEG2PEG2gEC18OH)-N-3Pya-Sar-CONH2] (Ac-[dR][Pen]NT[Trp(7-Me)]K(Ac)[Pen][AEF]([Suc-X2])[2Nal][Thp]K([AEEA-AEEA-γGlu-C18 diacid])N[3Pal][Sar]-NH2; disulfide 2-7) | > 9.30 | > 7.30
2 | CC(=O)N[C@H](CCCNC(=N)N)C(=O)N[C@@H]1C(=O)N[C@@H](CC(N)=O)C(=O)N[C@@H]([C@@H](C)O)C(=O)N[C@@H](Cc2c[nH]c3c(C)cccc23)C(=O)N[C@@H](CCCCNC(=O)COCCOCCNC(=O)COCCOCCNC(=O)CC[C@H](NC(=O)CCCCCCCCCCCCCCC(=O)O)C(=O)O)C(=O)N[C@H](C(=O)N[C@@H](Cc2ccc(OCCCCC[N+](C)(C)C)cc2)C(=O)N[C@@H](Cc2ccc3ccccc3c2)C(=O)NC2(C(=O)N[C@@H](CCC(=O)O)C(=O)N[C@@H](CC(N)=O)C(=O)N[C@@H](Cc3cccnc3)C(=O)N(C)CC(=O)N(C)C)CCOCC2)C(C)(C)SSC1(C)C [compound 92, MeCO-r-Pen(3)-N-T-7MeW-K(PEG2PEG2gEC18OH)-Pen(3)-TMAPF-2Nal-THF-E-N-3Pya-Sar-CONH2] (Ac-[dR][Pen]NT[Trp(7-Me)]K([AEEA-AEEA-γGlu-C16 diacid])[Pen]Y(X1)[2Nal][Thp]EN[3Pal][Sar]-NMe2; disulfide 2-7) | > 9.30 | 6.30 to 7.30
3 | CC(=O)NCCCC[C@@H]1NC(=O)[C@H](Cc2c[nH]c3c(C)cccc23)NC(=O)[C@H]([C@@H](C)O)NC(=O)[C@H](CC(N)=O)NC(=O)[C@@H](NC(=O)[C@@H](CCCNC(=N)N)NC(C)=O)C(C)(C)SSC(C)(C)[C@@H](C(=O)N[C@@H](Cc2ccc(OCCN)cc2)C(=O)N[C@@H](Cc2ccc3ccccc3c2)C(=O)NC2(C(=O)N[C@@H](CCCCNC(=O)CCC(=O)N[C@H](CC(=O)O)C[N+](C)(C)C)C(=O)N[C@@H](CC(N)=O)C(=O)N[C@@H](Cc3cccnc3)C(=O)N(C)CC(=O)N[C@@H](CCCCNC(=O)COCCOCCNC(=O)COCCOCCNC(=O)CC[C@H](NC(=O)CCCCCCCCCCCCCCCCC(=O)O)C(=O)O)C(N)=O)CCOCC2)NC1=O [compound 51, MeCO-r-Pen(3)-N-T-7MeW-K(Ac)-Pen(3)-AEF-2Nal-THP-K(d)-N-3Pya-Sar-K(PEG2PEG2gEC18OH)-CONH2] (Ac-[dR][Pen]NT[Trp(7-Me)]K(Ac)[Pen][AEF][2Nal][Thp]K([Suc-X2])N[3Pal][Sar]K([AEEA-AEEA-γGlu-C18 diacid])-NH2; disulfide 2-7) | > 9.30 | ≤ 6.30
4 | CC[C@@H]1NC(=O)[C@H](Cc2c[nH]c3c(C)cccc23)NC(=O)[C@H]([C@@H](C)O)NC(=O)[C@H](CC(=O)N(C)C)NC(=O)[C@@H](NC(=O)CCOCCOCCOCCOCC[N+](C)(C)C)C(C)(C)SSC(C)(C)[C@@H](C(=O)NC(Cc2ccc(OCCN)cc2)C(=O)N[C@@H](Cc2ccc3ccccc3c2)C(=O)NC2(C(=O)N[C@@H](CCC(=O)O)C(=O)N[C@@H](CC(N)=O)C(=O)N[C@@H](Cc3cccnc3)C(=O)N(C)[C@@H](CCCCNC(=O)COCCOCCNC(=O)COCCOCCNC(=O)CC[C@H](NC(=O)CCCCCCCCCCCCCCCCCCC(=O)O)C(=O)O)C(N)=O)CCOCC2)NC1=O (stereo partly shown) [compound 152, cPEG5aCO-Pen(3)-N(N(Me)2)-T-7MeW-Dab(NMecPEG5A)-Pen(3)-AEF-2Nal-THP-E-N-3Pya-NMeK(PEG2PEG2gEC20OH)-CONH2] ({Me3N+CH2CH2(OCH2CH2)4CO}-[Pen]D(NMe2)T[Trp(7-Me)][Abu][Pen][ξAEF][2Nal][Thp]EN[3Pal][NMeK]([AEEA-AEEA-γGlu-C20 diacid])-NH2; disulfide 1-6) | > 9.30 | 6.30 to 7.30
5 | CC(=O)NCCCC[C@@H]1NC(=O)[C@H](CC2CNc3c(C)cccc32)NC(=O)[C@H]([C@@H](C)O)NC(=O)[C@H](CC(N)=O)NC(=O)[C@@H](NC(=O)[C@@H](CCCNC(=N)N)NC(C)=O)C(C)(C)SSC(C)(C)[C@@H](C(=O)N[C@@H](Cc2ccc(OCCN)cc2)C(=O)N[C@@H](Cc2ccc3ccccc3c2)C(=O)NCC(=O)N[C@@H](CCCCNC(=O)CCOCCOCCOCCOCCOCCOCCOCCOCCOCCOCCOCCOCCNC(=O)CC[C@H](NC(=O)CCCCCCCCCCCCCCCCC(=O)O)C(=O)O)C(=O)N[C@@H](CC(N)=O)C(=O)N[C@@H](Cc2cccnc2)C(=O)N(C)CC(N)=O)NC1=O (stereo partly drawn) [compound 146, MeCO-r-Pen(3)-N-T-7MeW-K(Ac)-Pen(3)-AEF-2Nal-THP-K(PEG12gEC18OH)-N-3Pya-Sar-CONH2] (Ac-[dR][Pen]NT[Trp(7-Me,2,3-dihydro)]K(Ac)[Pen][AEF][2Nal]GK([PEG12-γGlu-C18 diacid])N[3Pal][Sar]-NH2; disulfide 2-7) | > 9.30 | 6.30 to 7.30
6 | CC(=O)NCCCC[C@@H]1NC(=O)[C@H](Cc2c[nH]c3c(C)cccc23)NC(=O)[C@H]([C@@H](C)O)NC(=O)[C@H](CC(N)=O)NC(=O)[C@@H](NC(=O)[C@@H](CCCCNC(=O)COCCOCCNC(=O)COCCOCCNC(=O)CC[C@H](NC(=O)CCCCCCCCCCCCCCCCC(=O)O)C(=O)O)NC(C)=O)C(C)(C)SSC(C)(C)[C@@H](C(=O)N[C@@H](Cc2ccc(OCCN)cc2)C(=O)N[C@@H](Cc2ccc3ccccc3c2)C(=O)NC2(C(=O)N[C@@H](CCC(=O)O)C(=O)N[C@@H](CC(N)=O)C(=O)N[C@@H](Cc3cccnc3)C(=O)N(C)CC(N)=O)CCOCC2)NC1=O [compound 58, MeCO-k(PEG2PEG2gEC18OH)-Pen(3)-N-T-7MeW-K(Ac)-Pen(3)-AEF-2Nal-THP-E-N-3Pya-Sar-CONH2] (Ac-[dK]([AEEA-AEEA-γGlu-C18 diacid])[Pen]NT[Trp(7-Me)]K(Ac)[Pen][AEF][2Nal][Thp]EN[3Pal][Sar]-NH2; disulfide 2-7) | > 9.30 | 6.30 to 7.30
7 | CC(=O)N(C)CCCC[C@@H]1NC(=O)[C@H](Cc2c[nH]c3c(C)cccc23)NC(=O)[C@H]([C@@H](C)O)NC(=O)[C@H](CC(=O)N(C)C)NC(=O)[C@@H](NC(=O)COCCOCCNC(=O)COCCOCCNC(=O)CC[C@H](NC(=O)CCCCCCCCCCCCCCCCC(=O)O)C(=O)O)C(C)(C)SSC(C)(C)[C@@H](C(=O)N[C@@H](Cc2ccc(OCCCCC[N+](C)(C)C)cc2)C(=O)N[C@@H](Cc2ccc3ccccc3c2)C(=O)NC2(C(=O)N[C@@H](CCCCN(C)C(C)=O)C(=O)N[C@@H](CC(N)=O)C(=O)N[C@@H](Cc3cccnc3)C(=O)N(C)CC(=O)N(C)C)CCOCC2)NC1=O [compound 118, HOC18gEPEG2PEG2CO-Pen(3)-N(N(Me)2)-T-7MeW-K(NMeAc)-Pen(3)-TMAPF-2Nal-THP-K(NMeAc)-N-3Pya-Sar-CON(Me)2] ({C18 diacid-γGlu-AEEA-AEEA}-[Pen]D(NMe2)T[Trp(7-Me)][Lys(Me)](Ac)[Pen]Y(X1)[2Nal][Thp][Lys(Me)](Ac)N[3Pal][Sar]-NMe2; disulfide 1-6) | > 9.30 | > 7.30
8 | C=C(/C=N\C)C[C@H](NC(=O)[C@H](CC(N)=O)NC(=O)[C@H](CCC(=O)O)NC(=O)C1(NC(=O)[C@H](Cc2ccc3ccccc3c2)NC(=O)[C@H](Cc2ccc(OCCN)cc2)NC(=O)[C@H]2NC(=O)[C@H](CCCCNC(C)=O)NC(=O)[C@H](Cc3c[nH]c4c(C)cccc34)NC(=O)[C@H]([C@@H](C)O)NC(=O)[C@H](CC(N)=O)NC(=O)[C@@H](NC(=O)[C@@H](CCCCNC(=O)CCOCCOCCOCCOCCOCCOCCOCCOCCOCCOCCOCCOCCNC(=O)CC[C@H](NC(=O)CCCCCCCCCCCCCCCCCCC(=O)O)C(=O)O)NC(C)=O)C(C)(C)SSC2(C)C)CCOCC1)C(=O)N(C)CC(N)=O [compound 26, MeCO-k(PEG12gEC20OH)-Pen(3)-N-T-7MeW-K(Ac)-Pen(3)-AEF-2Nal-THP-E-N-3Pya-Sar-CONH2] (Ac-[dK]([PEG12-γGlu-C20 diacid])[Pen]NT[Trp(7-Me)]K(Ac)[Pen][AEF][2Nal][Thp]EN[X40][Sar]-NH2; disulfide 2-7) | > 9.30 | > 7.30
